For 5 compounds, EC50 and inhibition results are on record in patent publication US10653688B2, “6-(6-membered heteroaryl and aryl)isoquinolin-3-yl carboxamides and preparation and use thereof” (Samumed, LLC, priority 2017, dated 2020).

pEC50: −log10 of the molar value. Like-named read-outs stand apart in the source and are kept apart here.

For assay [1], the system named is Wnt activity (SW480 colon carcinoma cells stably expressing the Sp5-Luc reporter gene). Description: Wnt activity screening assay (Sp5-Luc reporter gene assay). The class given is cell-based, human. Conditions: Homo sapiens; for pEC50: 36 to 48 hours; for inhibition at 10 µM: read-out: percent inhibition at 10 μM (given for EC50 >10 μM), 10 μM. The method in brief: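 EC50 values come from a variable-slope four-parameter fit of luminescence normalized to DMSO-only wells. The read-out follows 36–48 h incubation at 37 °C, 5% CO2, in DMEM containing 1% fetal bovine serum. Cells are hygromycin-selected SW480 stably expressing firefly luciferase under a Wnt-responsive Sp5 promoter (eight TCF/LEF sites).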

A further assay concerns the target recombinant GSK3β kinase (Homo sapiens (Human), UniProt P49841). Description: GSK3β kinase assay (Ser/Thr 09 peptide Z-lyte, FRET).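 Also: FRET read-out as coumarin over fluorescein emission ratio, compounds incubated one hour at room temperature, IC50 from dose-response curve fit.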 Type of assay: biochemical.
Assay [2] concerns Tau phosphorylation at Ser396 (pSer396) in SH-SY5Y cells. Description: Tau phosphorylation at Ser396 (pSer396) cell assay, ELISA/western blot. Type of assay: cell-based, human. Conditions: Homo sapiens; SH-SY5Y cells, overnight (16-18 h); read-out: pSer396 Tau EC50. The protocol:
SH-SY5Y cells (human neuroblastoma) were cultured in DMEM/F-12 medium supplemented with 15% FBS, Non-essential Amino Acid and Penicillin/Streptomycin. Two days before treatment, cells were seeded onto 96 well plates at 5×10^4 cells/well.
The above synthesized compounds were screened using the cell assay procedure to assess decrease Tau phosphorylation at Ser396 (pSer396) described below.
DMSO-resuspended compounds were dispensed to 8 wells as a serial titration from 10 μM to 4.6 nM final in medium and cells were exposed overnight (16-18 h) in a humidified incubator at 36.6c before harvest.
Cells were lysed with RIPA buffer complemented with phosphatase and protease inhibitors then lysates were spun down at 12,000 g for 10 min to remove any cellular debris. Lysates are then either directly tested for pSer396 by ELISA (Life Technology, Kit KHB7031) or loaded on NuPage Bis-Tris gels for western blot analysis. Colorimetric detection of ELISA signal is performed by Cytation3 plate reader (Biotek) and the chemiluminescence signal for HRP-linked antibodies used in western blotting is detected using a Carestream Image Station. The same pSer396 antibody is used for detection of pTau in both assays.
Blot densitometry for pSer396 and β-actin were analyzed using ImageJ (NIH) and pSer396 Tau ELISA signal was used to plot, draw the curve fitting, and determine each compounds EC50 in Prism (GraphPad).
A general note: An ELISA detects its analyte on a solid surface through an enzyme-linked reagent.

Assay [3] has as its system SW480 colon carcinoma cells. Description: Cell viability assay (CellTiter-Glo). The class given is cell-based, human. The following applies: Homo sapiens; for pEC50: 96 h, four days, CellTiter-Glo; for inhibition at 10 µM: read-out: percent inhibition at 10 μM (given for EC50 >10 μM), 10 μM. In general terms: In ATP-based viability assays light output follows the ATP content of the culture.

Assay [4] deals with LL29 cells (primary human fibroblasts derived from IPF patients), α-smooth muscle actin. Kind of assay: Inhibition of fibrotic process: TGF-β1-treated primary human fibroblasts, αSMA staining.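 As to all read-outs here: controls were TGF-β1-stimulated wells with DMSO vehicle as the positive reference and cells given DMSO alone as the negative reference.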 The class given is cell-based. Conditions: Homo sapiens, Fibroblast; for pEC50: 96 h, TGF-β1 20 ng/mL, 4 days, % cells positive for αSMA; for inhibition at 10 µM: read-out: percent inhibition at 10 μM (given for EC50 >10 μM), TGF-β1, αSMA, 10 μM.

Assay [5] deals with IL-6 in human peripheral blood mononuclear cells (huPBMCs). Description: IL-6 inhibition in LPS-stimulated human peripheral blood mononuclear cells (HTRF). Type of assay: cell-based. Conditions: Homo sapiens, PBMC; for pEC50: LPS 50 ng/mL, 22 hours, IL-6 HTRF; for inhibition at 10 µM: read-out: percent inhibition at 10 μM (given for EC50 >10 μM), LPS, IL-6, 10 μM. Put shortly:
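Compound-treated huPBMCs (1×10e6 cells/mL, 1% FBS-RPMI) were stimulated after 2 h with LPS (50 ng/mL) for another 22 h at 37° C. An anti-IL-6 HTRF pair reported IL-6 as the 665/620 nm ratio; activity relative to DMSO, EC50 by 4-parameter Levenberg-Marquardt fitting, duplicates.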
A general note: Time-resolved FRET reads energy transfer from a long-lived donor to a nearby acceptor.

Assay [6] addresses recombinant DYRK1A kinase (Homo sapiens (Human), UniProt Q13627). Description: DYRK1A kinase assay (Ser/Thr 18 peptide Z-lyte, FRET).
The test system of assay [7] is pT212Tau in Dyrk1a- and MAPT-overexpressing HEK293T cells. Description: Tau phosphorylation at Threonine 212 (pT212Tau) sandwich ELISA in double transfected cells. Conditions: Homo sapiens, HEK-293T, read-out: Thr212 EC50 (μM).
The test system of assay [8] is secreted cytokines TNFα, IL-6 and KC-GRO in BV-2 cells (mouse microglial cells). Description: Secreted cytokines in lipopolysaccharide-stimulated mouse glial cell line. The class given is cell-based. The following applies: LPS 250 ng/mL 5 hours, table does not say which cytokine. The protocol:
Representative compounds were screened using the cell-based assay procedure for secreted cytokines in a Lipopolysaccharide-stimulated mouse glial cell line described below.
BV-2 cells (mouse microglial cells) were cultured in 1:1 DMEM medium supplemented with 10% FBS, and 1% penicillin/streptomycin.
BV-2 cells are plated at 35,000 cells/well in a volume of 100 μl for at least 4 hours before compounds are added. DMSO-resuspended compounds were first dispensed in a 96-well plate and serial diluted from 10 μM to 4.6 nM final concentration in medium. Compounds were added to cells overnight. 250 ng/mL of lipopolysaccharide (Escherichia coli O111:B4, SIGMA) was added for 5 hours. Supernatant is removed and saved for further cytokine detection. The original plates with seeded cells were tested for cytotoxicity by measure of adenosine triphosphate (ATP) release by adding CellTiter-Glo® diluted 1:4 in distilled water (G7573, Promega) and transferring lysed cells to a completely black 96-well plate to be read with the Cytation3. Supernatant was then diluted 1:2 with a diluent from V-PLEX cytokine Kit and directly tested for the secreted cytokines TNFα, IL-6 and KC-GRO using electrochemiluminescence (Meso Scale Discovery). The standard curve for each cytokine was used to convert the electrochemiluminescent signal into pg of protein per mL. The signal was used to plot, draw the curve fitting, and determine each compounds EC50 in Prism (GraphPad).

Where [9] appears, read: GSK3β kinase, head says EC50, method says IC50, ATP 46 μM.
Where [10] appears, read: DYRK1A kinase, head says EC50, method says IC50, ATP 30 μM.

recombinant GSK3β kinase, sequence (P49841 whole entry): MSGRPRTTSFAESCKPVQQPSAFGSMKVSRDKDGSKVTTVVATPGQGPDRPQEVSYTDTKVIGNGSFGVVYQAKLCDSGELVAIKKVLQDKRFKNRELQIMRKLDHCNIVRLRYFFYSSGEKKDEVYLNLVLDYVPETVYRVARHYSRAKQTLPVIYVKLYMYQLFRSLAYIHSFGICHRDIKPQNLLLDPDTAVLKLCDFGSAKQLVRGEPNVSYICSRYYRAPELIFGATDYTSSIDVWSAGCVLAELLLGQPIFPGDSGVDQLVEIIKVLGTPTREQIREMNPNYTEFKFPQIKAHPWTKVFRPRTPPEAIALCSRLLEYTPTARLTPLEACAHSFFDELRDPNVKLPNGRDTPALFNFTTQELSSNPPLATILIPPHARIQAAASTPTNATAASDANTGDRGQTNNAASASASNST
Experimental for recombinant GSK3β kinase: Each compound is dissolved in DMSO as a 10 mM stock and used to prepare compound source plates. Serial dilution (1:3, 11-point dose-response curves from 10 M to 0.0003 M) and compound transfer was performed using the ECHO 550 (Labcyte, Sunnyvale, Calif.) into 1536-well black-walled round bottom plates (Corning).
This is a non-radioactive assay using fluorescence resonance energy transfer (FRET) between coumarin and fluorescein to detect kinase activity which is represented as ratio of coumarin emission/fluorescein emission.
The mixture is allowed to incubate with the representative compounds for one hour at room temperature. All reactions were performed in duplicate. Unphosphorylated (“0% Control”) and phosphorylated (“100% control”) forms of Ser/Thr 18 serve as control reactions.
After incubation, diluted Development Buffer is added to the reaction and allowed to further incubate for one hour at room temperature.
Dose-response curves are generated and inhibitory concentration (IC50) values are calculated using non-linear regression curve fit in the Dotmatics' Studies Software (Bishops Stortford, UK).

One may read the pEC50 as the negative decadic logarithm of the EC50, by convention in mol/L. For orientation: inhibition means the percentage by which the read-out fell short of the control. As usually defined, the EC50 is the concentration that produces a half-maximal response. Regarding `O=C(Nc1cc2cc(-c3cncc(F)c3)ccc2cn1)[C@H]1C[C@H](N2CCOCC2)C1` [Compound 16, trans-N-(6-(5-Fluoropyridin-3-yl)isoquinolin-3-yl)-3-morpholinocyclobutane-1-carboxamide], the pEC50 in [1] is under 5.00; on recombinant GSK3β kinase (setting [9]) it was 6.59; in [2], 5.59; in assay [3] it was under 5.00; in [4], under 5.00; in [5], under 5.00. In addition, the pEC50 in assay [6] (setting [10]) was 8.10. Also, the inhibition at 10 µM in [1] was 24.9%; in [3] it was 15.5%; in assay [4], 6.7%; in [5], 43.1%. In addition, in assay [7], the EC50 came out at 0.046 µM.

As for `CN1CCC(C(=O)Nc2cc3cc(-c4cnc(N)nc4)ccc3cn2)CC1` [Compound 65, N-(6-(2-Aminopyrimidin-5-yl)isoquinolin-3-yl)-1-methylpiperidine-4-carboxamide], the pEC50 in assay [1] is under 5.00; at recombinant GSK3β kinase, 5.05; in assay [2], under 5.00; in assay [3], under 5.00; in [4] it was 5.61; in assay [5], under 5.00. Moreover, in assay [6], the pEC50 was 7.32. For the same compound, the inhibition at 10 µM in assay [1] was 32.2%; in assay [3] it was 47.1%; in assay [5] it was 0%.

With `CN(C)[C@H]1CC[C@H](C(=O)Nc2cc3cc(-c4cnccn4)ccc3cn2)CC1` [Compound 70, trans-4-(dimethylamino)-N-(6-(pyrazin-2-yl)isoquinolin-3-yl)cyclohexane-1-carboxamide], the pEC50 in [1] was under 5.00; at recombinant GSK3β kinase it was 6.12; in assay [2] it was 5.11; in assay [3], under 5.00; in [4] it was 6.20; in [8], 7.24. Also, the pEC50 is 5.03 in assay [5] and 7.77 in [6]. Further, the inhibition at 10 µM in [1] worked out at 31%; in [3], 35.3%.

`O=C(Nc1cc2cc(-c3cnccn3)ccc2cn1)c1ccc(CN2CCOCC2)cc1` [Compound 83, 4-(Morpholinomethyl)-N-(6-(pyrazin-2-yl)isoquinolin-3-yl)benzamide]: the pEC50 in assay [1] is 5.46; at recombinant GSK3β kinase (setting [9]) it was under 5.00; in [2] it was under 5.00; in [3], 5.17; in assay [4] it was under 5.00; in [5] it was under 5.00. For the same compound, in assay [6] (setting [10]), the pEC50 was 8.05. The inhibition at 10 µM came to 29.6% in [4] and 5% in [5].

On to `O=C(Nc1cc2cc(-c3cncc(OCC4CNC4)n3)ccc2cn1)c1ccc(F)cc1` [Compound 124, N-(6-(6-(azetidin-3-ylmethoxy)pyrazin-2-yl)isoquinolin-3-yl)-4-fluorobenzamide], for which the pEC50 in [1] is 5.98; on recombinant GSK3β kinase (setting [9]), 6.74; in assay [2], 6.09; in [3] it was 5.62; in assay [4], under 5.00; in [5] it was 5.68. For the same compound, the pEC50 in [6] (setting [10]) was 8.22. Further, in assay [4], the inhibition at 10 µM was determined as 5.2%.
